Values joined by “and” are separate entries in the source; they are usually repeats but may differ in a detail not shown here. Equal values may be shown once.
Target: T1, human TAS2R1 (Homo sapiens, UniProt Q9NYW7)
T1 construct: expressed in transfected cells; host or cells: HEK293T-Gα16gust44
T1 sequence (Q9NYW7 1-299): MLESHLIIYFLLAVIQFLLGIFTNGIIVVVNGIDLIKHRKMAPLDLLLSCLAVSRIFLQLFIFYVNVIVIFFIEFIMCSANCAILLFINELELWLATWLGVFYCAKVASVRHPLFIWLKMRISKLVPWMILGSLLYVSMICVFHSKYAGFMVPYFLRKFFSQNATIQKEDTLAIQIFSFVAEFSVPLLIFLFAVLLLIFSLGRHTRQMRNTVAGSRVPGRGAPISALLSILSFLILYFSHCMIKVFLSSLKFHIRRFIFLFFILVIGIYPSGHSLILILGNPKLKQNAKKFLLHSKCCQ
Test: Calcium imaging assay (FLIPR), HEK293T-Gα16gust44 cells transfected with human TAS2R1
Format: cell-based
Summary of the method: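 Read-out is Fluo-4 fluorescence change (ΔF/F) after automated application of bile acids (DMSO stocks) to transiently transfected cells. Values are corrected for empty-vector cells and normalized to buffer. Dose-response from three independent experiments in duplicate; threshold concentration set at p < 0.01 versus mock.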

C[C@H](CCC(=O)O)[C@H]1CC[C@H]2[C@@H]3[C@@H](O)C[C@@H]4C[C@H](O)CC[C@]4(C)[C@H]3CC[C@]12C [Ursodeoxycholic Acid, ursodeoxycholic acid]
Efficacy = maximal amplitude (ΔF/F) (TAS2R1, bile acids, mean): 0.1201
Efficacy (maximal amplitude ΔF/F), individual data points (TAS2R1, bile acids, single replicates, listed as UDCA): 0.1146 and 0.1323 and 0.1134
RLU (Time 0 s): 0 RLU
RLU (Time 2.015 s): -1.909 RLU
RLU (Time 4.015 s): -10.1979 RLU
RLU (Time 6.015 s): -25.0303 RLU
RLU (Time 8.015 s): -6.66 RLU
RLU (Time 12.015 s): -0.9118 RLU
RLU (Time 14.015 s): -27.1256 RLU
RLU (Time 16.015 s): -36.3442 RLU
RLU (Time 18.015 s): -16.5405 RLU
RLU (Time 18.796 s): -5.241 RLU
RLU (Time 20.796 s): -5.4345 RLU
RLU (Time 22.796 s): -14.9172 RLU
RLU (Time 24.796 s): 111.581 RLU
RLU (Time 26.796 s): 220.014 RLU
RLU (Time 28.796 s): 332.008 RLU
RLU (Time 30.796 s): 471.987 RLU
RLU (Time 32.796 s): 554.696 RLU
RLU (Time 34.796 s): 591.628 RLU
RLU (Time 36.796 s): 614.691 RLU
RLU (Time 38.796 s): 661.973 RLU
RLU (Time 40.796 s): 688.451 RLU
RLU (Time 42.796 s): 682.803 RLU
RLU (Time 44.796 s): 694.821 RLU
RLU (Time 46.796 s): 713.853 RLU
RLU (Time 48.796 s): 712.245 RLU
RLU (Time 50.796 s): 701.71 RLU
RLU (Time 52.796 s): 706.484 RLU
RLU (Time 54.796 s): 693.141 RLU
RLU (Time 56.796 s): 703.514 RLU
RLU (Time 58.796 s): 690.888 RLU
RLU (Time 60.796 s): 687.968 RLU
RLU (Time 62.796 s): 660.683 RLU
RLU (Time 64.796 s): 647.003 RLU
RLU (Time 66.796 s): 672.518 RLU
RLU (Time 68.796 s): 641.326 RLU
RLU (Time 70.796 s): 644.562 RLU
RLU (Time 72.796 s): 618.535 RLU
RLU (Time 74.796 s): 611.038 RLU
RLU (Time 76.796 s): 596.187 RLU
RLU (Time 78.796 s): 593.169 RLU
RLU (Time 80.796 s): 594.173 RLU
RLU (Time 82.796 s): 573.074 RLU
RLU (Time 84.796 s): 565.693 RLU
RLU (Time 86.796 s): 545.003 RLU
RLU (Time 88.796 s): 536.557 RLU
RLU (Time 90.796 s): 528.103 RLU
RLU (Time 92.796 s): 490.474 RLU
RLU (Time 94.796 s): 507.179 RLU
RLU (Time 96.796 s): 484.826 RLU
RLU (Time 98.796 s): 487.253 RLU
RLU (Time 100.796 s): 484.348 RLU
RLU (Time 102.796 s): 464.491 RLU
RLU (Time 104.796 s): 467.659 RLU
RLU (Time 106.796 s): 432.725 RLU
RLU (Time 108.796 s): 406.747 RLU
RLU (Time 110.796 s): 379.699 RLU
RLU (Time 112.796 s): 357.544 RLU
RLU (Time 114.796 s): 362.533 RLU
RLU (Time 116.796 s): 332.202 RLU
RLU (Time 118.796 s): 323.517 RLU
RLU (Time 120.796 s): 321.799 RLU
RLU (Time 122.796 s): 311.834 RLU
RLU (Time 124.796 s): 301.938 RLU
RLU (Time 126.796 s): 306.062 RLU
RLU (Time 128.796 s): 271.359 RLU
RLU (Time 130.796 s): 275.474 RLU
RLU (Time 132.796 s): 247.428 RLU
RLU (Time 134.796 s): 253.899 RLU
RLU (Time 136.796 s): 243.041 RLU
RLU (Time 137.562 s): 220.326 RLU
RLU (Time 143.562 s): 203.668 RLU
RLU (Time 149.562 s): 176.37 RLU
RLU (Time 155.562 s): 166.486 RLU
RLU (Time 161.562 s): 168.826 RLU
RLU (Time 167.562 s): 116.188 RLU
RLU (Time 173.562 s): 124.68 RLU
RLU (Time 179.562 s): 97.5703 RLU
RLU (Time 185.562 s): 83.8515 RLU
RLU (Time 191.562 s): 81.5894 RLU
RLU (Time 197.562 s): 63.0668 RLU
RLU (Time 203.562 s): 46.8203 RLU
RLU (Time 209.562 s): 23.6957 RLU
RLU (Time 215.562 s): 20.9611 RLU
RLU (Time 221.562 s): 21.314 RLU
RLU (Time 227.562 s): 32.3726 RLU
RLU (Time 233.562 s): 4.71 RLU
RLU (Time 239.562 s): 3.353 RLU
RLU (Time 245.562 s): -15.0975 RLU
RLU (Time 293.562 s): -21.0295 RLU
RLU (Time 299.562 s): -10.1171 RLU
RLU (calcium trace, sheet TAS2R1, Time 305.562 s): -21.932 RLU
RLU (calcium trace, sheet TAS2R1, Time 311.562 s): -35.6948 RLU
RLU (calcium trace, sheet TAS2R1, Time 317.562 s): -15.7818 RLU
RLU (calcium trace, sheet TAS2R1, Time 323.562 s): -21.7457 RLU
RLU (calcium trace, sheet TAS2R1, Time 329.562 s): -25.1818 RLU
RLU (calcium trace, sheet TAS2R1, Time 335.562 s): -20.2182 RLU
RLU (calcium trace, sheet TAS2R1, Time 341.562 s): 10.616 RLU
RLU (calcium trace, sheet TAS2R1, Time 347.562 s): -20.1556 RLU
RLU (calcium trace, sheet TAS2R1, Time 353.562 s): -12.0438 RLU
RLU (calcium trace, sheet TAS2R1, Time 359.562 s): -31.063 RLU
Δ F/F (conc. 0,01 mM, TAS2R1): 0.05863
Δ F/F (conc. 0,03 mM, TAS2R1): 0.1201
Δ F/F (conc. 0,0001 mM, TAS2R1): -0.003399
Δ F/F (conc. 0,0003 mM, TAS2R1): 0.009061
Δ F/F (conc. 0,001 mM, TAS2R1): 0.007937
Δ F/F (conc. 0,003 mM, TAS2R1): 0.01609
Activation threshold concentration TAS2R1 (lowest concentration with significantly increased fluorescence vs empty vector (p < 0.01)): 3 µM and 3.00 µM

Reference: article PMC10247784, “Physiological activation of human and mouse bitter taste receptors by bile acids” (Communications Biology, 2023)
